Reference: patent publication US9206124B2, “Treatment of drug-resistant cancer with 2-aryl-2-(3-indolyl) acetohydroxamates” (New Mexico Technical Research Foundation, priority 2013, dated 2015)
Read-outs that look alike come from different tables or passages of the source.

Tests used:
[1] = test system: HeLa cervical adenocarcinoma cells; experiment: MTT antiproliferative assay, HeLa; format: cell-based; details: Homo sapiens, ± SD, read-out: cell viability GI50, HeLa
Text: (§1) This finding led to an exploration of the SAR analyses by synthesizing the first generation compounds 3 containing diverse substituents at different positions in the 2-aryl-2-(3-indolyl)acetohydroxamate skeleton and testing this series for in vitro growth inhibition using the MTT colorimetric assay against two cell lines, human HeLa cervical and MCF-7 breast adenocarcinomas (Table 1). It emerged from these experiments that the substitution on the benzene ring of the indole moiety (R^2≠H) was not tolerated (e.g., 3abfa and 3acfa), whereas the nitrogen could be derivatized (R^1≠H) with only a small activity drop (e.g., 3bafa vs 3aafa).
(§2) Human cancer cell lines were obtained from the American Type Culture Collection (ATCC, Manassas, Va., USA), the European Collection of Cell Culture (ECACC, Salisbury, UK) and the Deutsche Sammlung von Mikroorganismen and Zellkulturen (DSMZ, Braunschweig, Germany). Human cervical adenocarcinoma HeLa cells were cultured in DMEM supplemented with 10% fetal bovine serum (FBS). Human mammary carcinoma MCF-7 cells were cultured in RPMI supplemented with 10% FBS. The U87 cells (ATCC HTB-14) were cultured in DMEM culture medium, while the A549 cells (DSMZ ACC107) were cultured in RPMI culture medium supplemented with 10% heat-inactivated FBS. The glioblastoma multiforme Hs683 (ATCC HTB-138) and the T98G (ATCC CRL-1690) cell lines were cultivated in DMEM supplemented with 10% FBS. The Human uterine sarcoma MES-SA and MES-SA/Dx5 cells were cultured in RPMI-1640 medium supplemented with 10% FBS with MES SA/Dx5 maintained in the presence of 500 nM Doxorubicin (Sigma). SKMEL-28 cells (ATCC HTB72) and U373 glioblastoma cells (ECACC 08061901) were cultured in RPMI culture medium supplemented with 10% heat-inactivated FBS. Cell culture media were supplemented with 4 mM glutamine (Lonza code BE17-605E), 100 μg/mL gentamicin (Lonza code 17-5182), and penicillin-streptomycin (200 units/ml and 200 μg/ml) (Lonza code 17-602E). Neurosphere culture GBM 031810 was established using known methods and maintained in Neurobasal medium (Invitrogen Carlsbad, Calif.) with B27 supplement (20 ul/ml; Invitrogen), Glutamax (10 ul/ml; Invitrogen), fibroblast growth factor-2 (20 ng/ml; Peprotech, Rocky Hill, N.J., USA), epidermal growth factor (20 ng/ml; Peprotech), heparin (32 IE/ml; Sigma Aldrich, St. Louis, Mo.), and penicillin-streptomycin (1×, Invitrogen). Growth factors and heparin were renewed twice weekly. All cell lines were cultured in T25 flasks, maintained and grown at 37° C., 95% humidity, 5% CO2.
(§3) Antiproliferative properties of the synthesized compounds were evaluated by the MTT assay. All compounds were dissolved in DMSO at a concentration of either 100 mM or 50 mM prior to cell treatment. The cells were trypsinized and seeded at 4×10^3 cells per well into 96-well plates. The cells were grown for 24 h, treated with compounds at concentrations ranging from 0.001 to 100 μM and incubated for 48 h in 200 μL media. 20 μL of MTT reagent in serum free medium (5 mg/mL) was added to each well and incubated further for 2 h. Media was removed and the resulting formazan crystals were re-solubilized in 200 μL of DMSO. A490 was measured using a Molecular Devices Thermomax plate reader. The experiments were performed in quadruplicate and repeated at least twice for each compound per cell line. Cells treated with 0.1% DMSO were used as a negative control; 1 μM phenyl arsine oxide (PAO) was used as a positive control.

[2] = test system: MCF-7 breast adenocarcinoma cells; experiment: MTT antiproliferative assay, MCF-7; format: cell-based; details: Homo sapiens, ± SD, read-out: cell viability GI50, MCF7
Text: as §1, §2, §3

[3] = test system: HeLa cervical and MCF-7 breast adenocarcinomas; experiment: In vitro growth inhibition (MTT); format: cell-based, human; details: HeLa and MCF-7
Text: as §1, §3

U87 glioblastoma cells = experiment: MTT antiproliferative assay, U87; format: cell-based, human; details: FIG. 3; concentrations up to 100 μM
Experimental: (§4) As part of the ongoing efforts aimed at identification of compounds active against cancer cells displaying resistance to proapoptotic agents, the selected 2-aryl-2-(3-indolyl)-acetohydroxamates were evaluated for in vitro growth inhibition against a panel of additional cancer cell lines including those resistant to various proapoptotic stimuli, such as human T98G and U87 glioblastoma and human A549 non-small-cell-lung cancer (NSCLC), as well as an apoptosis-sensitive tumor model, such as human Hs683 anaplastic oligodendroglioma, used as a reference. The data reveal that for the most part these compounds retain the single-digit antiproliferatve GI50 values in this challenging cancer cell panel.
as §2, §3

[4] = test system: A549 non-small-cell-lung cancer cells; experiment: MTT antiproliferative assay, A549; format: cell-based, human; details: FIG. 3; concentrations up to 100 μM
Experimental: as §4, §2, §3

[5] = test system: MES-SA uterine sarcoma cells; experiment: MTT antiproliferative assay, MES-SA; format: cell-based; details: Homo sapiens, 48 h treatment, ± SD, read-out: GI50 in vitro, MES-SA
Experimental: Compared with the intrinsic drug resistance, as described above for such cancers as glioblastoma and melanoma, a large variety of tumors can also develop resistance to anticancer drugs resulting in MDR as explained previously. To assess whether the hydroxamates can overcome this resistance mechanism, selected hydroxamates were tested against MDR cells (Table 4). The MDR uterine sarcoma cell line MES-SA/Dx5 was utilized for this experiment. This cell line was established from the parent uterine sarcoma MES-SA, grown in the presence of increasing concentrations of doxorubicin and known to be resistant to a number of P-gp substrates. […] In contrast, there was only a small variation in the sensitivities of the two cell lines towards the hydroxamates indicating their potential to overcome clinical multi-drug resistance.
as §2, §3

Structure (SMILES): O=C(NO)C(c1ccccc1)c1c(-c2ccccc2)[nH]c2ccccc12 (centres unmarked) [Compound 3aaaa]
- GI50 ([1]; Table 1, 48 h treatment): 23 ± 2.6 µM
- GI50 ([2]; MCF7, Table 1, 48 h treatment): 31 ± 0.6 µM
- antiproliferative potency (GI50) [3]: double-digit micromolar

Structure (SMILES): O=C(NO)C(c1ccc([N+](=O)[O-])cc1)c1c(-c2ccccc2)[nH]c2ccccc12 (centres unmarked) [Compound 3aaab]
- GI50 ([1]; Table 1, 48 h treatment): > 50 µM
- GI50 ([2]; MCF7, Table 1, 48 h treatment): > 50 µM

Structure (SMILES): O=C(NO)C(c1ccccc1)c1c(-c2ccccc2[N+](=O)[O-])[nH]c2ccccc12 (centres unmarked) [Compound 3aaba]
- GI50 ([1]; Table 1, 48 h treatment): > 50 µM
- GI50 ([2]; MCF7, Table 1, 48 h treatment): > 50 µM

Structure (SMILES): COc1ccc(-c2[nH]c3ccccc3c2C(C(=O)NO)c2ccccc2)cc1 (centres unmarked) [Compound 3aaca]
- GI50 ([1]; Table 1, 48 h treatment): > 50 µM
- GI50 ([2]; MCF7, Table 1, 48 h treatment): > 50 µM

Structure (SMILES): Cc1[nH]c2ccccc2c1C(C(=O)NO)c1ccccc1 (centres unmarked) [Compound 3aada]
- GI50 ([1]; Table 1, 48 h treatment): > 50 µM
- GI50 ([2]; MCF7, Table 1, 48 h treatment): > 50 µM

Structure (SMILES): O=C(NO)C(c1ccccc1)c1c(-c2cccc3ccccc23)[nH]c2ccccc12 (centres unmarked) [Compound 3aaea]
- GI50 ([1]; Table 1, 48 h treatment): 25.7 ± 1.6 µM
- GI50 ([2]; MCF7, Table 1, 48 h treatment): 32 ± 0.9 µM

Structure (SMILES): O=C(NO)C(c1cccc(F)c1)c1c(-c2ccc3ccccc3c2)[nH]c2ccccc12 (centres unmarked) [Compound 3aafc]
- GI50 ([1]; Table 2, 48 h treatment): 32.9 ± 1.1 µM
- GI50 ([2]; MCF7, Table 2, 48 h treatment): 20.4 ± 0.1 µM

Structure (SMILES): O=C(NO)C(c1ccccc1Br)c1c(-c2ccc3ccccc3c2)[nH]c2ccccc12 (centres unmarked) [Compound 3aafd]
- GI50 ([1]; Table 2, 48 h treatment): 13 ± 0.4 µM
- GI50 ([2]; MCF7, Table 2, 48 h treatment): 2.7 µM

Structure (SMILES): COc1ccc(C(C(=O)NO)c2c(-c3ccc4ccccc4c3)[nH]c3ccccc23)cc1OC (centres unmarked) [Compound 3aaff]
- GI50 ([1]; Table 2, 48 h treatment): 26.9 ± 0.3 µM
- GI50 ([2]; MCF7, Table 2, 48 h treatment): 2.4 ± 0.1 µM

Structure (SMILES): O=C(NO)C(c1ccc(F)cc1)c1c(-c2ccc3ccccc3c2)[nH]c2ccccc12 (centres unmarked) [Compound 3aafg]
- GI50 ([1]; Table 2, 48 h treatment): 18.2 ± 0.9 µM
- GI50 ([2]; MCF7, Table 2, 48 h treatment): 6.3 ± 1.1 µM

Structure (SMILES): O=C(NO)C(c1ccccc1Cl)c1c(-c2ccc3ccccc3c2)[nH]c2ccccc12 (centres unmarked) [Compound 3aafh]
- GI50 ([1]; Table 2, 48 h treatment): 31 ± 0.2 µM
- GI50 ([2]; MCF7, Table 2, 48 h treatment): 4.9 ± 0.1 µM

Structure (SMILES): O=C(NO)C(c1ccc(Cl)c(Cl)c1)c1c(-c2ccc3ccccc3c2)[nH]c2ccccc12 (centres unmarked) [Compound 3aafi]
- GI50 ([1]; Table 2, 48 h treatment): 31.7 ± 1.7 µM
- GI50 ([2]; MCF7, Table 2, 48 h treatment): 12.2 ± 1 µM

Structure (SMILES): O=C(NO)C(c1ccc(OC(F)(F)F)cc1)c1c(-c2ccc3ccccc3c2)[nH]c2ccccc12 (centres unmarked) [Compound 3aafj]
- GI50 ([1]; Table 2, 48 h treatment): 27.4 ± 0.2 µM
- GI50 ([2]; MCF7, Table 2, 48 h treatment): 10.2 ± 0.1 µM

Structure (SMILES): CCOc1ccc(C(C(=O)NO)c2c(-c3ccc4ccccc4c3)[nH]c3ccccc23)cc1 (centres unmarked) [Compound 3aafl]
- GI50 ([1]; Table 2, 48 h treatment): 17.3 ± 0.2 µM
- GI50 ([2]; MCF7, Table 2, 48 h treatment): 8.5 ± 0.3 µM

Structure (SMILES): Cc1ccc(C(C(=O)NO)c2c(-c3ccc4ccccc4c3)[nH]c3ccccc23)cc1 (centres unmarked) [Compound 3aafm]
- GI50 ([1]; Table 2, 48 h treatment): 6.3 ± 1.3 µM
- GI50 ([2]; MCF7, Table 2, 48 h treatment): 4.9 ± 0.2 µM
- antiproliferative potency (GI50) [3]: single-digit micromolar

Structure (SMILES): Cc1cccc(C(C(=O)NO)c2c(-c3ccc4ccccc4c3)[nH]c3ccccc23)c1 (centres unmarked) [Compound 3aafn]
- GI50 ([1]; Table 2, 48 h treatment): 6.9 ± 0.4 µM
- GI50 ([2]; MCF7, Table 2, 48 h treatment): 7.4 ± 0.6 µM
- antiproliferative potency (GI50) [3]: single-digit micromolar

Structure (SMILES): CCN(CC)c1ccc(C(C(=O)NO)c2c(-c3ccc4ccccc4c3)[nH]c3ccccc23)cc1 (centres unmarked) [Compound 3aafo]
- GI50 ([1]; Table 2, 48 h treatment): 4.1 ± 0.2 µM
- GI50 ([2]; MCF7, Table 2, 48 h treatment): 7.9 ± 0.7 µM
- antiproliferative potency (GI50) [3]: single-digit micromolar

Structure (SMILES): Cc1ccc2[nH]c(-c3ccc4ccccc4c3)c(C(C(=O)NO)c3ccccc3)c2c1 (centres unmarked) [Compound 3abfa]
- GI50 ([1]; Table 1, 48 h treatment): > 50 µM
- GI50 ([2]; MCF7, Table 1, 48 h treatment): > 50 µM

Structure (SMILES): COc1ccc2[nH]c(-c3ccc4ccccc4c3)c(C(C(=O)NO)c3ccccc3)c2c1 (centres unmarked) [Compound 3acfa]
- GI50 ([1]; Table 1, 48 h treatment): > 50 µM
- GI50 ([2]; MCF7, Table 1, 48 h treatment): > 50 µM

Structure (SMILES): Cn1c(-c2ccc3ccccc3c2)c(C(C(=O)NO)c2ccccc2)c2ccccc21 (centres unmarked) [Compound 3bafa]
- GI50 ([1]; Table 1, 48 h treatment): 19.7 ± 1.7 µM
- GI50 ([2]; MCF7, Table 1, 48 h treatment): 10 ± 0.3 µM

Structure (SMILES): Cn1c(-c2ccc3ccccc3c2)c(C(C(=O)NO)c2cccc(F)c2)c2ccccc21 (centres unmarked) [Compound 3bafc]
- GI50 ([1]; Table 1, 48 h treatment): 36.8 ± 0.4 µM
- GI50 ([2]; MCF7, Table 1, 48 h treatment): 25.7 ± 1.4 µM

Structure (SMILES): Cn1c(-c2ccc3ccccc3c2)c(C(C(=O)NO)c2ccccc2Br)c2ccccc21 (centres unmarked) [Compound 3bafd]
- GI50 ([1]; Table 1, 48 h treatment): 24 ± 0.2 µM
- GI50 ([2]; MCF7, Table 1, 48 h treatment): 11.2 ± 0.9 µM

Structure (SMILES): CCCCn1c(-c2ccc3ccccc3c2)c(C(C(=O)NO)c2ccc(C(C)C)cc2)c2ccccc21 (centres unmarked) [Compound 3cafe]
- GI50 ([1]; Table 2, 48 h treatment): 6.6 ± 0.5 µM
- GI50 ([2]; MCF7, Table 2, 48 h treatment): 7.7 ± 0.4 µM
- antiproliferative potency (GI50) [3]: single-digit micromolar

Structure (SMILES): CCC(C)n1c(-c2ccc3ccccc3c2)c(C(C(=O)NO)c2ccccc2)c2ccccc21 (centres unmarked) [Compound 3dafa]
- GI50 ([1]; Table 2, 48 h treatment): 9.8 ± 0.8 µM
- GI50 ([2]; MCF7, Table 2, 48 h treatment): 9.3 ± 0.3 µM
- antiproliferative potency (GI50) [3]: single-digit micromolar

Structure (SMILES): CC(=O)O[C@H]1C(=O)[C@@]2(C)[C@H]([C@H](OC(=O)c3ccccc3)[C@]3(O)C[C@H](OC(=O)[C@H](O)[C@@H](NC(=O)c4ccccc4)c4ccccc4)C(C)=C1C3(C)C)[C@]1(OC(C)=O)CO[C@@H]1C[C@@H]2O [Taxol, reference compound]
- cells whose proliferation is not affected, U87 (U87 glioblastoma cells): ca. 50%
- cells whose proliferation is not affected, A549 [4]: ca. 50%
- GI50 [5]: 7 ± 1 nM

Structure (SMILES): COc1cc([C@@H]2c3cc4c(cc3[C@H](O)[C@H]3COC(=O)[C@H]23)OCO4)cc(OC)c1OC [podophyllotoxin, reference compound]
- cells whose proliferation is not affected, U87 (U87 glioblastoma cells): ca. 50%
- cells whose proliferation is not affected, A549 [4]: ca. 50%
